Measurements from patent US9452225B2, “GLP-1 prodrugs” (Novo Nordisk A/S, priority 2012, dated 2016).
Like-named read-outs stand apart in the source and are kept apart here. Numbered stars: 1 amine (or outer) side, 2 acyl side, 3 side chain; on linkers, the order of the positions; unused ones are H or OH. Square brackets hold non-standard residues; d marks the D form. Side chains are listed from the residue outwards. Peptide text beside a SMILES is read from it. * marks the point of attachment. Decanoyl(10-(4-HOOC-PhO)) = O=C(O)c1ccc(OCCCCCCCCCC(=O)*)cc1; Lac(3-(imidazol-4-yl)) = O=C(O)[C@@H](O)Cc1c[nH]cn1; C18 diacid = O=C(O)CCCCCCCCCCCCCCCCC(=O)*; γGlu = O=C(O)[C@H](CCC(=O)[*:2])N[*:1]; NMeI = CC[C@H](C)[C@H](NC)C(=O)O; NMeV = CN[C@H](C(=O)O)C(C)C; AEEA = NCCOCCOCC(=O)O; Aib = CC(C)(N)C(=O)O; Sar = CNCC(=O)O

Tests used:
[1] = Prodrug half-life in vitro, buffer method; format: physicochemical
Protocol: (§1) The purpose of this example is to test the in vitro half-lives (T½) of the GLP-1 prodrugs of the invention, in comparison to conceptually different prodrugs. In what follows two in vitro methods are described, viz. a method conducted in buffer, and a method conducted in plasma.
Buffer: 25 mM Phosphate (Ionic strength: 154 mM, pH 7.4 at 37° C.)
NaH2PO4.2H2O (1.95 g, 12.5 mmol) and NaCl (2.61 g, 44.7 mmol) were dissolved in millipore water (approximately 450 mL) and adjusted to pH=7.44 at approximately 20° C. with concentrated NaOH and 1 M NaOH. Water was added to 500.00 mL.
The compound to be tested was dissolved in buffer to a concentration of 1.0 mg/mL and incubated at 37° C. Samples were taken at adequate intervals and the % parent drug compared to prodrug formed as function of time was evaluated by the UPLC method as referred to in Table 1 by comparing the areas under the curves for the two corresponding peaks. These UPLC methods are described in the general experimental section above (UPLC_A, and UPLC_B).
(§2) The half life of the prodrug (T½) was calculated from the slope of a linear fit to the curve of ln(% prodrug (Y)) as a function of time (t), as follows: Y=÷αt+k Math. 1 T½=ln(2)/α Math. 2 Plasma Method Buffer: 200 mM Phosphate, pH 7.4 at 37° C.
The resulting half-lives are set out in Table 1 below. For comparison, the T½ in buffer of native GLP-1(7-37) (His7 variant of SEQ ID NO: 1) was 13 minutes (0.2 hours).

[2] = Prodrug half-life in vitro, plasma method (minipig heparin plasma); format: in vitro ADME; details: minipig heparin plasma 800 μL + 200 μL 200 mM phosphate pH 7.4, 37° C.; UPLC_A, or UPLC_B for compounds marked *; read-out: T½ in plasma (converted)
Protocol: as §1, §2
NaH2PO4.2H2O (15.61 g, 100 mmol) was dissolved in milliQ water (approximately 450 mL) and adjusted to pH=7.44 at approximately 20° C. with concentrated NaOH (aq) and 1 M NaOH (aq). Water was added to 500.00 mL.
Serum: Minipig Serum, Heparin-Plasma
Fresh blood was tapped from minipig into 9 mL LH lithium heparin Vacuette tubes from Greiner bio-one (catalogue number 455084). After cooling on ice it was centrifuged (10 min, 4° C., 3000 rpm/1942G) and the supernatant isolated and kept at −18° C. before use.
100 nmol of the compound to be tested was dissolved in 200 μL buffer, added to 800 μL plasma (centrifuged), and incubated at 37° C. Samples (50 μL) were drawn at appropriate intervals into 150 μL absolute EtOH. After a short stirring the sample was centrifuged and the supernatant transferred to the UPLC vial (10 μL injection).
The % parent drug compared to prodrug formed as a function of time was evaluated by UPLC, and the half-life calculated, both in the same way as described above under the Buffer method.

[3] = 25 mM phosphate buffer pH 7.4, 37° C., 1.0 mg/mL, UPLC_A, or UPLC_B for compounds marked *, read-out: T½ in buffer (converted)

Compound | half-life at 1 mg/mL [1, 3] | half-life [2] | half-life at 1 mg/mL ([1]; buffer, pH 7.4)
CC[C@H](C)[C@H](NC(=O)[C@H](Cc1ccccc1)NC(=O)[C@H](CCC(=O)O)NC(=O)[C@H](CCCNC(=N)N)NC(=O)[C@@H](NC(=O)[C@H](C)NC(=O)[C@H](CCC(N)=O)NC(=O)[C@H](CCC(=O)O)NC(=O)[C@H](CCC(=O)O)NC(=O)[C@H](CC(C)C)NC(=O)[C@H](Cc1ccc(O)cc1)NC(=O)[C@H](CCCCNC(=O)COCCOCCNC(=O)COCCOCCNC(=O)CC[C@H](NC(=O)CCCCCCCCCOc1ccc(C(=O)O)cc1)C(=O)O)NC(=O)[C@H](CO)NC(=O)[C@@H](NC(=O)[C@H](CC(=O)O)NC(=O)[C@H](CO)NC(=O)[C@@H](NC(=O)[C@H](Cc1ccccc1)NC(=O)[C@@H](NC(=O)CNC(=O)[C@H](CCC(=O)O)NC(=O)[C@H](C)NC(=O)[C@H](Cc1c[nH]cn1)OC(=O)[C@@H](NC(=O)CNC)C(C)C)[C@@H](C)O)[C@@H](C)O)C(C)C)C(C)C)C(=O)N[C@@H](C)C(=O)N[C@@H](CCCCNC(=O)COCCOCCNC(=O)COCCOCCNC(=O)CC[C@H](NC(=O)CCCCCCCCCOc1ccc(C(=O)O)cc1)C(=O)O)C(=O)N[C@@H](CC(C)C)C(=O)N[C@H](C(=O)N[C@@H](CCCNC(=N)N)C(=O)NCC(=O)N[C@@H](CCCNC(=N)N)C(=O)NCC(=O)O)C(C)C [Example 1] (H-[Sar]V[Lac(3-(imidazol-4-yl))]AEGTFTSDVSK([AEEA-AEEA-γGlu-Decanoyl(10-(4-HOOC-PhO))])YLEEQAVREFIAK([AEEA-AEEA-γGlu-Decanoyl(10-(4-HOOC-PhO))])LVRGRG-OH) | 9.6 h | 3.6 h | 
CC[C@H](C)[C@H](NC(=O)[C@H](Cc1ccccc1)NC(=O)[C@H](CCC(=O)O)NC(=O)[C@H](CCCNC(=N)N)NC(=O)[C@@H](NC(=O)[C@H](C)NC(=O)[C@H](CCC(N)=O)NC(=O)[C@H](CCC(=O)O)NC(=O)[C@H](CCC(=O)O)NC(=O)[C@H](CC(C)C)NC(=O)[C@H](Cc1ccc(O)cc1)NC(=O)[C@H](CCCCNC(=O)COCCOCCNC(=O)COCCOCCNC(=O)CC[C@H](NC(=O)CCCCCCCCCOc1ccc(C(=O)O)cc1)C(=O)O)NC(=O)[C@H](CO)NC(=O)[C@@H](NC(=O)[C@H](CC(=O)O)NC(=O)[C@H](CO)NC(=O)[C@@H](NC(=O)[C@H](Cc1ccccc1)NC(=O)[C@@H](NC(=O)CNC(=O)[C@H](CCC(=O)O)NC(=O)[C@H](C)NC(=O)[C@H](Cc1c[nH]cn1)OC(=O)[C@@H](NC(=O)[C@@H](NC)C(C)C)C(C)C)[C@@H](C)O)[C@@H](C)O)C(C)C)C(C)C)C(=O)N[C@@H](C)C(=O)N[C@@H](CCCCNC(=O)COCCOCCNC(=O)COCCOCCNC(=O)CC[C@H](NC(=O)CCCCCCCCCOc1ccc(C(=O)O)cc1)C(=O)O)C(=O)N[C@@H](CC(C)C)C(=O)N[C@H](C(=O)N[C@@H](CCCNC(=N)N)C(=O)NCC(=O)N[C@@H](CCCNC(=N)N)C(=O)NCC(=O)O)C(C)C [Example 2] (H-[NMeV]V[Lac(3-(imidazol-4-yl))]AEGTFTSDVSK([AEEA-AEEA-γGlu-Decanoyl(10-(4-HOOC-PhO))])YLEEQAVREFIAK([AEEA-AEEA-γGlu-Decanoyl(10-(4-HOOC-PhO))])LVRGRG-OH) | 42.5 h | 27.5 h | 
CC[C@H](C)[C@H](NC(=O)[C@H](Cc1ccccc1)NC(=O)[C@H](CCC(=O)O)NC(=O)[C@H](CCCNC(=N)N)NC(=O)[C@@H](NC(=O)[C@H](C)NC(=O)[C@H](CCC(N)=O)NC(=O)[C@H](CCC(=O)O)NC(=O)[C@H](CCC(=O)O)NC(=O)[C@H](CC(C)C)NC(=O)[C@H](Cc1ccc(O)cc1)NC(=O)[C@H](CCCCNC(=O)COCCOCCNC(=O)COCCOCCNC(=O)CC[C@H](NC(=O)CCCCCCCCCOc1ccc(C(=O)O)cc1)C(=O)O)NC(=O)[C@H](CO)NC(=O)[C@@H](NC(=O)[C@H](CC(=O)O)NC(=O)[C@H](CO)NC(=O)[C@@H](NC(=O)[C@H](Cc1ccccc1)NC(=O)[C@@H](NC(=O)CNC(=O)[C@H](CCC(=O)O)NC(=O)[C@H](C)NC(=O)[C@H](Cc1c[nH]cn1)OC(=O)[C@@H](NC(=O)[C@@H](N)C(C)C)C(C)C)[C@@H](C)O)[C@@H](C)O)C(C)C)C(C)C)C(=O)N[C@@H](C)C(=O)N[C@@H](CCCCNC(=O)COCCOCCNC(=O)COCCOCCNC(=O)CC[C@H](NC(=O)CCCCCCCCCOc1ccc(C(=O)O)cc1)C(=O)O)C(=O)N[C@@H](CC(C)C)C(=O)N[C@H](C(=O)N[C@@H](CCCNC(=N)N)C(=O)NCC(=O)N[C@@H](CCCNC(=N)N)C(=O)NCC(=O)O)C(C)C [Example 2a] (H-VV[Lac(3-(imidazol-4-yl))]AEGTFTSDVSK([AEEA-AEEA-γGlu-Decanoyl(10-(4-HOOC-PhO))])YLEEQAVREFIAK([AEEA-AEEA-γGlu-Decanoyl(10-(4-HOOC-PhO))])LVRGRG-OH) | 10.5 h | 4.6 h | 
CC[C@H](C)[C@H](NC)C(=O)N[C@H](C(=O)O[C@@H](Cc1c[nH]cn1)C(=O)NC(C)(C)C(=O)N[C@@H](CCC(=O)O)C(=O)NCC(=O)N[C@H](C(=O)N[C@@H](Cc1ccccc1)C(=O)N[C@H](C(=O)N[C@@H](CO)C(=O)N[C@@H](CC(=O)O)C(=O)N[C@H](C(=O)N[C@@H](CO)C(=O)N[C@@H](CO)C(=O)N[C@@H](Cc1ccc(O)cc1)C(=O)N[C@@H](CC(C)C)C(=O)N[C@@H](CCC(=O)O)C(=O)N[C@@H](CCC(=O)O)C(=O)N[C@@H](CCC(N)=O)C(=O)N[C@@H](C)C(=O)N[C@@H](C)C(=O)N[C@@H](CCCNC(=N)N)C(=O)N[C@@H](CCCCNC(=O)COCCOCCNC(=O)COCCOCCNC(=O)CC[C@H](NC(=O)CCCCCCCCCCCCCCCCC(=O)O)C(=O)O)C(=O)N[C@@H](Cc1ccccc1)C(=O)N[C@H](C(=O)N[C@@H](C)C(=O)N[C@@H](Cc1c[nH]c2ccccc12)C(=O)N[C@@H](CC(C)C)C(=O)N[C@H](C(=O)N[C@@H](CCCNC(=N)N)C(=O)NCC(=O)N[C@@H](CCCNC(=N)N)C(=O)NCC(=O)O)C(C)C)[C@@H](C)CC)C(C)C)[C@@H](C)O)[C@@H](C)O)C(C)C [Example 6] (H-[NMeI]V[Lac(3-(imidazol-4-yl))][Aib]EGTFTSDVSSYLEEQAARK([AEEA-AEEA-γGlu-C18 diacid])FIAWLVRGRG-OH) |  |  | 45.6 h
CC[C@H](C)[C@H](N)C(=O)N[C@H](C(=O)O[C@@H](Cc1c[nH]cn1)C(=O)NC(C)(C)C(=O)N[C@@H](CCC(=O)O)C(=O)NCC(=O)N[C@H](C(=O)N[C@@H](Cc1ccccc1)C(=O)N[C@H](C(=O)N[C@@H](CO)C(=O)N[C@@H](CC(=O)O)C(=O)N[C@H](C(=O)N[C@@H](CO)C(=O)N[C@@H](CO)C(=O)N[C@@H](Cc1ccc(O)cc1)C(=O)N[C@@H](CC(C)C)C(=O)N[C@@H](CCC(=O)O)C(=O)N[C@@H](CCC(=O)O)C(=O)N[C@@H](CCC(N)=O)C(=O)N[C@@H](C)C(=O)N[C@@H](C)C(=O)N[C@@H](CCCNC(=N)N)C(=O)N[C@@H](CCCCNC(=O)COCCOCCNC(=O)COCCOCCNC(=O)CC[C@H](NC(=O)CCCCCCCCCCCCCCCCC(=O)O)C(=O)O)C(=O)N[C@@H](Cc1ccccc1)C(=O)N[C@H](C(=O)N[C@@H](C)C(=O)N[C@@H](Cc1c[nH]c2ccccc12)C(=O)N[C@@H](CC(C)C)C(=O)N[C@H](C(=O)N[C@@H](CCCNC(=N)N)C(=O)NCC(=O)N[C@@H](CCCNC(=N)N)C(=O)NCC(=O)O)C(C)C)[C@@H](C)CC)C(C)C)[C@@H](C)O)[C@@H](C)O)C(C)C [Example 6a] (H-IV[Lac(3-(imidazol-4-yl))][Aib]EGTFTSDVSSYLEEQAARK([AEEA-AEEA-γGlu-C18 diacid])FIAWLVRGRG-OH) |  |  | 11 h
